Where two headings read alike, the source gives them in different places.
Assays:
human FXR (NR1H4) = biological target: T1, human FXR (NR1H4) (Homo sapiens, UniProt Q96RI1); assay: Human FXR (NR1H4) agonist assessment, FXRE-NanoLuc reporter in HEK293T cells; format: cell-based
T1 sequence (Q96RI1 1-476 isoform Q96RI1-1): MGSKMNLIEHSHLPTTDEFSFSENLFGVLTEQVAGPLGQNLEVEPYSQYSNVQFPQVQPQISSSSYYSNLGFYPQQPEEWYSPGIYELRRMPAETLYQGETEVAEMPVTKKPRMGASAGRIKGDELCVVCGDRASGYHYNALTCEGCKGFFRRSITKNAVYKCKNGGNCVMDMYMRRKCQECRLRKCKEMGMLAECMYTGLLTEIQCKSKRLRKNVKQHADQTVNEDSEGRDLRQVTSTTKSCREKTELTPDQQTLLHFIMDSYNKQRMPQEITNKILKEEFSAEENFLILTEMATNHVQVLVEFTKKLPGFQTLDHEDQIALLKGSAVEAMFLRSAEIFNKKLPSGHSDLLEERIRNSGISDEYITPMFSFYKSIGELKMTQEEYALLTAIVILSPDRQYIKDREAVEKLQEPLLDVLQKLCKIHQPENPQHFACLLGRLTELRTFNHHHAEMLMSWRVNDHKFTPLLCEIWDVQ
How it was run: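 Read-out was NanoLuc luminescence in culture medium, measured 5 min after adding coelenterazine. Cells were HEK293T stably carrying human FXR and an FXRE reporter, exposed to compound for 24 hr at 37 °C. Vehicle was 0.01% DMSO. EC50 was obtained from sigmoid fits of gradient dilutions.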

MRGPRX4 = MRGPRX4 (Homo sapiens, UniProt Q96LA9); assay: MRGPRX4 activation, Fluo-8 Ca2+ FLIPR assay in HEK293T cells stably expressing MRGPRX4; format: cell-based; design: key to MRGPRX4 activation, Average / MRGPRX4 activation, Ave.: fluorescence change dF/F0
How it was run: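 Response measured as dF/F0: 30 s baseline, then 150 s after compound addition on FLIPR Tetra, in HHBS after 40-60 min room-temperature loading with 2 μM Fluo-8 AM.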

[1] = FXR activation, HEK293T FXRE-NanoLuc reporter, 24 hr
[2] = FXR activation, HEK293T FXRE-NanoLuc reporter, 24 hr, read-out: EC50
[3] = MRGPRX4 activation, Ca2+ fluorescence, no activation in tested range reported as III, read-out: Activity (EC50 μM)

Chain of MRGPRX4 (Q96LA9 whole entry): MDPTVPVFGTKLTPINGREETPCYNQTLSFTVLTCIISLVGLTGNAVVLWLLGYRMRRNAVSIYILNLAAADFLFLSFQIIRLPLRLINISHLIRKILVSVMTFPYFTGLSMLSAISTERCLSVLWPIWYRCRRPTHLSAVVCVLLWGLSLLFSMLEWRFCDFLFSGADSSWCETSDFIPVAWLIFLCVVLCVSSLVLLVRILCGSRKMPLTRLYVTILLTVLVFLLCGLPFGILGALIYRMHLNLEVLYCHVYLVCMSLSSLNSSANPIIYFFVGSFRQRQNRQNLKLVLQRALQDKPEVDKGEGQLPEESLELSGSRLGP

Row | Structure (SMILES) | Efficacy (maximum measured induction of NanoLuc, normalized to CDCA set as 100%) (human FXR (NR1H4); [1]) | EC50 (human FXR (NR1H4); [2]) [nM] | MRGPRX4 activation, Average (MRGPRX4; E3-9, Conc. (Log[M]) −4.0) | MRGPRX4 activation, Average (MRGPRX4; E3-9, Conc. (Log[M]) −4.5) | MRGPRX4 activation, Average (MRGPRX4; E3-9, Conc. (Log[M]) −5.0) | MRGPRX4 activation, Average (MRGPRX4; E3-9, Conc. (Log[M]) −5.4) | MRGPRX4 activation, Average (MRGPRX4; E3-9, Conc. (Log[M]) −5.9) | MRGPRX4 activation, Average (MRGPRX4; E3-9, Conc. (Log[M]) −6.4) | MRGPRX4 activation, Average (MRGPRX4; E3-9, Conc. (Log[M]) −6.9) | MRGPRX4 activation, Average (MRGPRX4; E3-9, Conc. (Log[M]) −7.3) | MRGPRX4 activation, Average (MRGPRX4; E3-9, Conc. (Log[M]) −7.8) | MRGPRX4 activation, Average (MRGPRX4; E3-9, Conc. (Log[M]) −8.3) | EC50 (MRGPRX4; [3]) [µM] | EC50 (human FXR (NR1H4)) [nM] | EC50 (MRGPRX4) [µM] | Efficacy (maximum measured induction of NanoLuc, normalized to CDCA set as 100%) (human FXR (NR1H4))
1 | CC[C@H]1[C@@H](O)[C@@H]2[C@H](CC[C@]3(C)[C@@H]([C@H](C)CCNC(=O)NS(=O)(=O)c4ccc5c(c4)CCC(C)(C)O5)CC[C@@H]23)[C@@]2(C)CCCC[C@@H]12 [5-29] | A (efficacy >400%) | < 1000 | 0.014 | 0.014 | 0.010 | 0.018 | 0.016 | 0.018 | 0.018 | 0.016 | 0.020 | 0.018 | > 100 | – | – | –
2 | CC[C@H]1[C@@H](O)[C@@H]2[C@H](CC[C@]3(C)[C@@H]([C@H](C)CCNC(=O)NS(=O)(=O)c4ccc(N5CCCCC5)nc4)CC[C@@H]23)[C@@]2(C)CCCC[C@@H]12 [5-30] | A (efficacy >400%) | < 1000 | 0.014 | 0.018 | 0.014 | 0.027 | 0.018 | 0.023 | 0.021 | 0.025 | 0.018 | 0.028 | > 100 | – | – | –
3 | CC[C@H]1[C@@H](O)[C@@H]2[C@H](CC[C@]3(C)[C@@H]([C@H](C)CCNS(=O)(=O)c4cc(F)ccc4F)CC[C@@H]23)[C@@]2(C)CCCC[C@@H]12 [6-2] | C (100%<efficacy <=300%) | 1000 to 10000 | 0.030 | 0.023 | 0.013 | 0.020 | 0.016 | 0.016 | 0.016 | 0.018 | 0.011 | 0.018 | > 100 | – | – | –
4 | CC[C@H]1[C@@H](O)[C@@H]2[C@H](CC[C@]3(C)[C@@H]([C@H](C)CCNS(=O)(=O)C[C@]45CC[C@H](CC4=O)C5(C)C)CC[C@@H]23)[C@@]2(C)CCCC[C@@H]12 [6-3] | C (100%<efficacy <=300%) | 1000 to 10000 | 0.016 | 0.008 | 0.020 | 0.016 | 0.018 | 0.018 | 0.011 | 0.018 | 0.020 | 0.013 | > 100 | – | – | –
5 | CC[C@H]1[C@@H](O)[C@@H]2[C@H](CC[C@]3(C)[C@@H]([C@H](C)CCNS(=O)(=O)CC(C)C)CC[C@@H]23)[C@@]2(C)CCCC[C@@H]12 [6-4] | C (100%<efficacy <=300%) | > 10000 | 0.027 | 0.011 | 0.011 | 0.018 | 0.016 | 0.011 | 0.018 | 0.018 | 0.020 | 0.018 | > 100 | – | – | –
6 | CC[C@H]1[C@@H](O)[C@@H]2[C@H](CC[C@]3(C)[C@@H]([C@H](C)CCNS(=O)(=O)C4CC4)CC[C@@H]23)[C@@]2(C)CCCC[C@@H]12 [6-5] | C (100%<efficacy <=300%) | 1000 to 10000 | 0.025 | 0.020 | 0.018 | 0.020 | 0.018 | 0.016 | 0.018 | 0.016 | 0.020 | 0.018 | > 100 | – | – | –
7 | CC[C@H]1[C@@H](O)[C@@H]2[C@H](CC[C@]3(C)[C@@H]([C@H](C)CCN=C=S)CC[C@@H]23)[C@@]2(C)CCCC[C@@H]12 [7-1] | C (100%<efficacy <=300%) | – | 0.020 | 0.018 | 0.013 | 0.013 | 0.011 | 0.013 | 0.004 | 0.008 | 0.006 | 0.011 | – | > 10000 | > 100 | –
8 | CC[C@H]1[C@@H](O)[C@@H]2[C@H](CC[C@]3(C)[C@@H]([C@H](C)CCNC(=O)C(=O)NS(=O)(=O)c4cccs4)CC[C@@H]23)[C@@]2(C)CCCC[C@@H]12 [8-2] | – | < 1000 | 0.020 | 0.018 | 0.018 | 0.016 | 0.018 | 0.011 | 0.018 | 0.008 | 0.011 | 0.006 | > 100 | – | – | B (key: A: efficacy >400%; B: 300%<efficacy <=400%; C: 100%<efficacy <=300%; D: efficacy <=100%)
9 | CC[C@H]1[C@@H](O)[C@@H]2[C@H](CC[C@]3(C)[C@@H]([C@H](C)CCNC(=O)C(=O)NS(=O)(=O)c4ccc(C(C)(C)CF)cc4)CC[C@@H]23)[C@@]2(C)CCCC[C@@H]12 [8-3] | C (100%<efficacy <=300%) | < 1000 | 0.023 | 0.016 | 0.016 | 0.023 | 0.025 | 0.013 | 0.013 | 0.013 | 0.011 | 0.018 | > 100 | – | – | –

From patent US20260116910A1, “POLYCYCLIC COMPOUNDS AND METHODS THEREOF” (HEPAITECH (BEIJING) BIOPHARMA TECHNOLOGY CO., LTD., priority 2021, published 2026)
